According to PubChem BioAssay (NCI):
Values joined by “and” are separate entries in the source; they are usually repeats but may differ in a detail not shown here. Identical values can stand only once.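 These data come from cells grown in 96-well plates and exposed to compound for 48 hours at five concentrations. GI50 marks 50% less growth. At the TGI there is no net growth.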

Experiments:
Assay in all cases: growth of human tumour cells (NCI), 48 h
A549 NSCLC = tested on: A549 NSCLC
HS 578T breast = tested on: HS 578T breast
NCI-H522 lung = tested on: NCI-H522 lung
TK-10 renal = tested on: TK-10 renal
HCT-15 colon = tested on: HCT-15 colon
UO-31 renal = tested on: UO-31 renal
MCF7 breast = tested on: MCF7 breast
M14 melanoma = tested on: M14 melanoma
MDA-MB-435 = tested on: MDA-MB-435
OVCAR-4 ovarian = tested on: OVCAR-4 ovarian

SMILES | GI50 (A549 NSCLC) | TGI (A549 NSCLC) | GI50 (HS 578T breast) | TGI (HS 578T breast) | GI50 (NCI-H522 lung) | TGI (NCI-H522 lung) | GI50 (TK-10 renal) | TGI (TK-10 renal) | GI50 (HCT-15 colon) | TGI (HCT-15 colon) | GI50 (UO-31 renal) | TGI (UO-31 renal) | GI50 (MCF7 breast) | TGI (MCF7 breast) | GI50 (M14 melanoma) | TGI (M14 melanoma) | GI50 (MDA-MB-435) | TGI (MDA-MB-435) | TGI (OVCAR-4 ovarian) | GI50 (OVCAR-4 ovarian)
CC1=C(C(=O)Nc2ccc(F)c(Cl)c2)C(c2cccc(O)c2)NC(=S)N1 (centres undefined) | 21 µM | > 50 µM | 13.7 µM | 47 µM | 12.4 µM | > 50 µM | > 50 µM | > 50 µM | 47.8 µM | > 50 µM | > 50 µM | > 50 µM | 17.5 µM | > 50 µM | 14.7 µM | > 50 µM | 11.6 µM | 28.9 µM |  | 
COC1CCC2C(=O)CCCC2O1 (centres undefined) |  | > 100 µM |  |  |  | > 100 µM |  | > 100 µM |  | > 100 µM |  | > 100 µM |  |  |  | > 100 µM |  |  | > 100 µM | 
CCOC(=O)c1[nH]c2cccc3c2c1CC(Br)C3=O (centres undefined) |  | 38.2 µM |  |  |  |  |  | 28.1 µM |  | 18.8 µM |  | 19.2 µM |  | 84.3 µM |  | 27.2 µM |  | 25.2 µM |  | 
CC1(c2ccccc2)CC12C(=O)NC(=O)NC2=O (centres undefined) |  | > 100 µM |  |  |  | > 100 µM |  | > 100 µM |  | > 100 µM |  | > 100 µM |  |  |  | > 100 µM |  |  | > 100 µM | 
CC(C)(C)C(=O)Nc1ccccc1Br |  | > 100 µM |  |  |  |  |  | > 100 µM |  | > 100 µM |  | > 100 µM |  |  |  | > 100 µM |  |  | > 100 µM | 
Cc1ccc(C2=[N+]([O-])c3ccccc3C2=O)cc1 |  | > 90.7 µM |  |  |  | 32.4 µM |  | > 31.6 µM |  | 42 µM |  | > 87.9 µM |  |  |  | 59.4 µM |  |  |  | 
CN(C)CCCNC(=O)c1cc(NC(=O)c2cc(NC(=O)CCCN3c4ccccc4C=Cc4ccccc43)cn2C)cn1C | 11.5 µM | 39.9 µM | 4.87 µM | 40 µM | 4.11 µM | 19.8 µM | 2.74 µM | 13.9 µM | 25.7 µM | 82.7 µM | 23.5 µM | 59.7 µM | 4.2 µM | > 100 µM | 2.97 µM | > 100 µM |  |  | 97.4 µM | 23.2 µM
Cc1ccc(C)c(-n2c(-c3ccc(Br)cc3)csc2=NC(=O)c2ccccc2F)c1 | > 100 µM | > 100 µM | > 100 µM | > 100 µM |  |  | > 100 µM | > 100 µM | > 100 µM | > 100 µM | > 100 µM | > 100 µM |  |  | > 100 µM | > 100 µM | > 100 µM | > 100 µM | > 100 µM | 9.57 µM
Brc1nc2c3ccccc3ncn2c1Br |  | > 100 µM |  |  |  | 53.6 µM |  | > 100 µM |  | > 100 µM |  | > 100 µM |  |  |  | > 100 µM |  |  | 42.7 µM | 
O=C1NC(=O)C2=C1CCC2O (centres undefined) |  | > 100 µM |  | > 100 µM |  |  |  | > 100 µM |  | > 100 µM |  | > 100 µM |  | > 100 µM |  | > 100 µM |  | > 100 µM | > 100 µM | 
Nc1ccc(CCN2CCN(c3cccc(C(F)(F)F)c3)CC2)cc1 |  | > 100 µM |  |  |  | > 100 µM |  | > 100 µM |  | > 100 µM |  | > 100 µM |  |  |  | > 100 µM |  |  |  | 
CCC12CCC(O)C1N(C)CCC2Sc1ccccc1 (centres undefined) |  | > 100 µM |  |  |  | > 100 µM |  | > 100 µM |  | > 100 µM |  | > 100 µM |  |  |  | > 100 µM |  |  | > 100 µM | 
COCC1N=C(c2ccc(OC)c(OCc3ccccc3)c2OC)O[C@H]1c1ccccc1 (some centres undefined) |  | > 100 µM |  |  |  | 69.3 µM |  | > 100 µM |  | 94.5 µM |  | 30.1 µM |  |  |  | 35.2 µM |  |  | > 100 µM | 
O=NN(CCCl)C(=O)NCc1ccc[n+]([O-])c1 |  | > 100 µM |  |  |  |  |  | > 100 µM |  | > 100 µM |  |  |  |  |  | > 100 µM |  |  | > 100 µM | 
CC1=C2C(=CC(C)(CO)C2O)C(=O)C(C)(O)C12CC2 (centres undefined) |  | 0.0902 µM |  |  | 0.00088 µM | 0.00421 µM |  | 0.0233 µM |  | 0.0462 µM | 0.0164 µM | 0.039 µM |  |  |  | 0.0104 µM |  |  | 0.0131 µM | 0.00378 µM
COC(=O)[C@H](C)[C@H]1CC[C@@](C)([C@H]2CC3C(C)(C)[C@H]4CCC(C)=C[C@H]4C[C@@]3(C)O2)OO1 (some centres undefined) |  | 23.2 µM |  |  |  | 3.32 µM |  | 28.9 µM |  | 24.2 µM |  | 19.2 µM |  |  |  | 25.8 µM |  |  | 30.1 µM | 
CC(C)SC1SCC2C(=O)N(C)C3(CC3C)C(=O)OCC(NC(=O)c3nc4ccccc4cc3O)C(=O)NC(C)C(=O)N(C)C1C(=O)N(C)C1(CC1C)C(=O)OCC(NC(=O)c1nc3ccccc3cc1O)C(=O)NC(C)C(=O)N2C (centres undefined) |  | 17 µM |  |  |  | < 0.0001 µM |  | < 0.0001 µM |  |  |  | < 0.0001 µM |  |  |  | < 0.0001 µM |  | < 0.0001 µM | < 0.0001 µM | 
NC(=O)c1csc(C2O[C@@H](COP(=O)(O)OP(=O)(O)OC[C@H]3OC(n4cnc5c(N)ncnc54)[C@H](O)[C@@H]3O)[C@H](O)[C@@H]2O)n1 (some centres undefined) |  | > 100 µM |  |  |  | > 100 µM |  | > 100 µM |  | > 100 µM |  | > 100 µM |  |  |  | > 100 µM |  |  | > 100 µM | 
O=C(Nc1ccccc1)O/N=C1/CCCC/C1=C\c1ccccc1 |  |  |  |  |  | 30.4 µM |  | 31.7 µM |  | 23.4 µM |  | 27 µM |  |  |  | 32.8 µM |  |  | 30.3 µM | 
O=C(Nc1cccc(C2=NCCN2)c1)c1ccc(OCCCOc2ccc(C(=O)Nc3cccc(C4=NCCN4)c3)cc2)cc1 |  |  | 2.55 µM | 6.6 µM |  |  | 13.2 µM | 35.3 µM | 20.2 µM | > 100 µM | 13.5 µM | > 100 µM |  |  | 2.88 µM | > 100 µM |  |  |  | 
COc1cccc(/C=C\c2cc(OC)c(OC)c(OC)c2)c1 |  | > 100 µM |  |  |  | 1.58 µM |  |  |  | > 100 µM |  | 33 µM |  |  |  | > 100 µM |  |  | > 100 µM | 
COc1cccc2c(Nc3ccc(C(=O)NCCNCCO)cc3)cc(-c3ccccc3)nc12 | > 100 µM | > 100 µM | 29.3 µM | > 100 µM | 20.3 µM | 53.8 µM | 30.2 µM | > 100 µM | 12.2 µM | > 100 µM | > 100 µM | > 100 µM |  |  | 26.9 µM | 74.7 µM | 27.8 µM | 75.5 µM | 43.7 µM | 13.5 µM
Cc1c2cc[n+](C)cc2c(C)c2c1[nH]c1ccc(OC(C)C)cc12 |  | > 100 µM |  |  |  | 3.8 µM and 8.1 µM |  | > 100 µM |  | > 100 µM |  | > 100 µM |  |  |  | 35 µM and 26.7 µM |  |  | 17.4 µM and > 45.2 µM | 
